Values after ≈ are worked out from the molar mass of the structure shown.
Molecular target: InhA reductase enzyme (Mycobacterium tuberculosis, UniProt P9WGR1)
Experiment: In vitro InhA enzyme inhibition (NADH oxidation at 340 nm)
Details: not given

Chain of InhA reductase enzyme (P9WGR1 whole entry, looked up): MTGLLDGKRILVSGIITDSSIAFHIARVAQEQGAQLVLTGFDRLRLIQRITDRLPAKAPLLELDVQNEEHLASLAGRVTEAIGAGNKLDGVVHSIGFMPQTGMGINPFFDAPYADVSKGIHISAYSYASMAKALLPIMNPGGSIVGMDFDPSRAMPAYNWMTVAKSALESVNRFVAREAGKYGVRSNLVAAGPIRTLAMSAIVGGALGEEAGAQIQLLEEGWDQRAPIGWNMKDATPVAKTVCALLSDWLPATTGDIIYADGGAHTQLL

| Compound | IC50 |
| --- | --- |
| NNC(=O)c1ccc(Oc2ccccc2)cc1 [Compound 3, 4-Phenoxybenzohydrazide] | 3.43 µM |
| c1ccc(Oc2ccc(-c3nnco3)cc2)cc1 [Compound 4, 2-(4-Phenoxyphenyl)-1,3,4-oxadiazole] | 3.28 µM |
| c1ccc(Oc2ccc(-c3nnc(-c4ccccc4)o3)cc2)cc1 [Compound 6a, 2-(4-Phenoxyphenyl)-5-phenyl-1,3,4-oxadiazole] | > 100 µM |
| COc1cc(-c2nnc(-c3ccc(Oc4ccccc4)cc3)o2)cc(OC)c1OC [Compound 6b, 2-(4-Phenoxyphenyl)-5-(3,4,5-trimethoxyphenyl)-1,3,4-oxadiazole] | > 100 µM |
| COc1ccc(-c2nnc(-c3ccc(Oc4ccccc4)cc3)o2)cc1 [Compound 6c, 2-(4-Methoxyphenyl)-5-(4-phenoxyphenyl)-1,3,4-oxadiazole] | > 100 µM |
| O=[N+]([O-])c1ccc(-c2nnc(-c3ccc(Oc4ccccc4)cc3)o2)cc1 [Compound 6d, 2-(4-Nitrophenyl)-5-(4-phenoxyphenyl)-1,3,4-oxadiazole] | 68.4 µM |
| Clc1ccc(-c2nnc(-c3ccc(Oc4ccccc4)cc3)o2)cc1 [Compound 6e, 2-(4-Chlorophenyl)-5-(4-phenoxyphenyl)-1,3,4-oxadiazole] | 64.5 µM |
| c1ccc(COc2ccc(-c3nnc(-c4ccc(Oc5ccccc5)cc4)o3)cc2)cc1 [Compound 6f, 2-(4-(Benzyloxy)phenyl)-5-(4-phenoxyphenyl)-1,3,4-oxadiazole] | 41.2 µM |
| c1ccc(Oc2ccc(-c3nnc(-c4cccc5ccccc45)o3)cc2)cc1 [Compound 6g, 2-(Naphthalen-1-yl)-5-(4-phenoxyphenyl)-1,3,4-oxadiazole] | 33.8 µM |
| c1ccc(Oc2ccc(-c3nnc(-c4cccnc4)o3)cc2)cc1 [Compound 6h, 2-(4-Phenoxyphenyl)-5-(pyridin-3-yl)-1,3,4-oxadiazole] | 5.08 µM |
| c1ccc(Oc2ccc(-c3nnc(-c4ccncc4)o3)cc2)cc1 [Compound 6i, 2-(4-Phenoxyphenyl)-5-(pyridin-4-yl)-1,3,4-oxadiazole] | 11.7 µM |
| c1ccc(Oc2ccc(-c3nnc(-c4ccco4)o3)cc2)cc1 [Compound 6j, 2-(Furan-2-yl)-5-(4-phenoxyphenyl)-1,3,4-oxadiazole] | 51.4 µM |
| c1ccc(Oc2ccc(-c3nnc(-c4cccs4)o3)cc2)cc1 [Compound 6k, 2-(4-Phenoxyphenyl)-5-(thiophen-2-yl)-1,3,4-oxadiazole] | 78.6 µM |
| c1ccc(Oc2ccc(-c3nnc(-c4ccc(Oc5ccccc5)cc4)o3)cc2)cc1 [Compound 6l, 2,5-bis(4-Phenoxyphenyl)-1,3,4-oxadiazole] | 5.63 µM |
| O=C(N/N=C/c1ccccc1)c1ccc(Oc2ccccc2)cc1 [Compound 8a, (E)-N′-Benzylidene-4-phenoxybenzohydrazide] | 73.2 µM |
| COc1cc(/C=N/NC(=O)c2ccc(Oc3ccccc3)cc2)cc(OC)c1OC [Compound 8b, (E)-4-Phenoxy-N′-(3,4,5-trimethoxybenzylidene)benzohydrazide] | > 100 µM |
| COc1ccc(/C=N/NC(=O)c2ccc(Oc3ccccc3)cc2)cc1 [Compound 8c, (E)-N′-(4-Methoxybenzylidene)-4-phenoxybenzohydrazide] | 75.5 µM |
| O=C(N/N=C/c1ccc(Cl)cc1)c1ccc(Oc2ccccc2)cc1 [Compound 8e, (E)-N′-(4-Chlorobenzylidene)-4-phenoxybenzohydrazide] | 7.46 µM |
| O=C(N/N=C/c1ccc(OCc2ccccc2)cc1)c1ccc(Oc2ccccc2)cc1 [Compound 8f, (E)-N′-[4-(Benzyloxy)benzylidene]-4-phenoxybenzohydrazide] | 29.9 µM |
| O=C(N/N=C/c1cccc2ccccc12)c1ccc(Oc2ccccc2)cc1 [Compound 8g, (E)-N′-(Naphthalen-1-ylmethylene)-4-phenoxybenzohydrazide] | 4.23 µM |
| O=C(N/N=C/c1cccnc1)c1ccc(Oc2ccccc2)cc1 [Compound 8h, (E)-4-Phenoxy-N′-(pyridin-3-ylmethylene)benzohydrazide] | 26.5 µM |
| O=C(N/N=C/c1ccncc1)c1ccc(Oc2ccccc2)cc1 [Compound 8i, (E)-4-Phenoxy-N′-(pyridin-4-ylmethylene)benzohydrazide] | 21.4 µM |
| O=C(N/N=C/c1ccco1)c1ccc(Oc2ccccc2)cc1 [Compound 8j, (E)-N′-(Furan-2-ylmethylene)-4-phenoxybenzohydrazide] | 18.4 µM |
| O=C(N/N=C/c1cccs1)c1ccc(Oc2ccccc2)cc1 [Compound 8k, (E)-4-Phenoxy-N′-(thiophen-2-ylmethylene)benzohydrazide] | 5.61 µM |

System: Vero cell line
Experiment: Cytotoxicity test, MTT assay
Type: cell-based, African green monkey
Details: Chlorocebus sabaeus, 24 h, Vero cells, 24 h exposure, 0.1–200 µg/mL, read-out: Vero Cell Line IC50 ± SEM

| Compound | IC50 |
| --- | --- |
| NNC(=O)c1ccc(Oc2ccccc2)cc1 [Compound 3, 4-Phenoxybenzohydrazide] | > 60 µg/mL |
| c1ccc(Oc2ccc(-c3nnco3)cc2)cc1 [Compound 4, 2-(4-Phenoxyphenyl)-1,3,4-oxadiazole] | > 60 µg/mL |
| c1ccc(Oc2ccc(-c3nnc(-c4cccnc4)o3)cc2)cc1 [Compound 6h, 2-(4-Phenoxyphenyl)-5-(pyridin-3-yl)-1,3,4-oxadiazole] | > 60 µg/mL |
| c1ccc(Oc2ccc(-c3nnc(-c4ccncc4)o3)cc2)cc1 [Compound 6i, 2-(4-Phenoxyphenyl)-5-(pyridin-4-yl)-1,3,4-oxadiazole] | > 60 µg/mL |
| c1ccc(Oc2ccc(-c3nnc(-c4cccs4)o3)cc2)cc1 [Compound 6k, 2-(4-Phenoxyphenyl)-5-(thiophen-2-yl)-1,3,4-oxadiazole] | 68.6 ± 1.19 µg/mL (≈ 214 µM) |
| c1ccc(Oc2ccc(-c3nnc(-c4ccc(Oc5ccccc5)cc4)o3)cc2)cc1 [Compound 6l, 2,5-bis(4-Phenoxyphenyl)-1,3,4-oxadiazole] | > 60 µg/mL |
| O=C(N/N=C/c1cccc2ccccc12)c1ccc(Oc2ccccc2)cc1 [Compound 8g, (E)-N′-(Naphthalen-1-ylmethylene)-4-phenoxybenzohydrazide] | > 60 µg/mL |
| O=C(N/N=C/c1cccs1)c1ccc(Oc2ccccc2)cc1 [Compound 8k, (E)-4-Phenoxy-N′-(thiophen-2-ylmethylene)benzohydrazide] | > 60 µg/mL |

System: not given
Experiment: not given
Details: not given

| Compound | melting point |
| --- | --- |
| c1ccc(Oc2ccc(-c3nnc(-c4ccccc4)o3)cc2)cc1 [Compound 6a, 2-(4-Phenoxyphenyl)-5-phenyl-1,3,4-oxadiazole] | 233 to 235 °C |
| COc1cc(-c2nnc(-c3ccc(Oc4ccccc4)cc3)o2)cc(OC)c1OC [Compound 6b, 2-(4-Phenoxyphenyl)-5-(3,4,5-trimethoxyphenyl)-1,3,4-oxadiazole] | 250 to 253 °C |
| COc1ccc(-c2nnc(-c3ccc(Oc4ccccc4)cc3)o2)cc1 [Compound 6c, 2-(4-Methoxyphenyl)-5-(4-phenoxyphenyl)-1,3,4-oxadiazole] | 226 to 228 °C |
| O=[N+]([O-])c1ccc(-c2nnc(-c3ccc(Oc4ccccc4)cc3)o2)cc1 [Compound 6d, 2-(4-Nitrophenyl)-5-(4-phenoxyphenyl)-1,3,4-oxadiazole] | 226 to 228 °C |
| c1ccc(COc2ccc(-c3nnc(-c4ccc(Oc5ccccc5)cc4)o3)cc2)cc1 [Compound 6f, 2-(4-(Benzyloxy)phenyl)-5-(4-phenoxyphenyl)-1,3,4-oxadiazole] | 226 to 229 °C |
| c1ccc(Oc2ccc(-c3nnc(-c4cccc5ccccc45)o3)cc2)cc1 [Compound 6g, 2-(Naphthalen-1-yl)-5-(4-phenoxyphenyl)-1,3,4-oxadiazole] | 173 to 175 °C |
| c1ccc(Oc2ccc(-c3nnc(-c4cccnc4)o3)cc2)cc1 [Compound 6h, 2-(4-Phenoxyphenyl)-5-(pyridin-3-yl)-1,3,4-oxadiazole] | 143 to 144 °C |
| c1ccc(Oc2ccc(-c3nnc(-c4ccncc4)o3)cc2)cc1 [Compound 6i, 2-(4-Phenoxyphenyl)-5-(pyridin-4-yl)-1,3,4-oxadiazole] | 125 to 127 °C |
| c1ccc(Oc2ccc(-c3nnc(-c4ccco4)o3)cc2)cc1 [Compound 6j, 2-(Furan-2-yl)-5-(4-phenoxyphenyl)-1,3,4-oxadiazole] | 129 to 132 °C |
| c1ccc(Oc2ccc(-c3nnc(-c4cccs4)o3)cc2)cc1 [Compound 6k, 2-(4-Phenoxyphenyl)-5-(thiophen-2-yl)-1,3,4-oxadiazole] | 139 to 141 °C |
| c1ccc(Oc2ccc(-c3nnc(-c4ccc(Oc5ccccc5)cc4)o3)cc2)cc1 [Compound 6l, 2,5-bis(4-Phenoxyphenyl)-1,3,4-oxadiazole] | 232 to 234 °C |
| O=C(N/N=C/c1ccccc1)c1ccc(Oc2ccccc2)cc1 [Compound 8a, (E)-N′-Benzylidene-4-phenoxybenzohydrazide] | 163 to 165 °C |
| COc1cc(/C=N/NC(=O)c2ccc(Oc3ccccc3)cc2)cc(OC)c1OC [Compound 8b, (E)-4-Phenoxy-N′-(3,4,5-trimethoxybenzylidene)benzohydrazide] | 191 to 192 °C |
| COc1ccc(/C=N/NC(=O)c2ccc(Oc3ccccc3)cc2)cc1 [Compound 8c, (E)-N′-(4-Methoxybenzylidene)-4-phenoxybenzohydrazide] | 233 to 235 °C |
| O=C(N/N=C/c1ccc(Cl)cc1)c1ccc(Oc2ccccc2)cc1 [Compound 8e, (E)-N′-(4-Chlorobenzylidene)-4-phenoxybenzohydrazide] | 184 to 186 °C |
| O=C(N/N=C/c1ccc(OCc2ccccc2)cc1)c1ccc(Oc2ccccc2)cc1 [Compound 8f, (E)-N′-[4-(Benzyloxy)benzylidene]-4-phenoxybenzohydrazide] | 228 to 231 °C |
| O=C(N/N=C/c1cccc2ccccc12)c1ccc(Oc2ccccc2)cc1 [Compound 8g, (E)-N′-(Naphthalen-1-ylmethylene)-4-phenoxybenzohydrazide] | 193 to 195 °C |
| O=C(N/N=C/c1cccnc1)c1ccc(Oc2ccccc2)cc1 [Compound 8h, (E)-4-Phenoxy-N′-(pyridin-3-ylmethylene)benzohydrazide] | 149 to 151 °C |
| O=C(N/N=C/c1ccncc1)c1ccc(Oc2ccccc2)cc1 [Compound 8i, (E)-4-Phenoxy-N′-(pyridin-4-ylmethylene)benzohydrazide] | 175 to 177 °C |
| O=C(N/N=C/c1cccs1)c1ccc(Oc2ccccc2)cc1 [Compound 8k, (E)-4-Phenoxy-N′-(thiophen-2-ylmethylene)benzohydrazide] | 182 to 183 °C |

System: Mycobacterium tuberculosis H37Rv
Experiment: Microplate Alamar Blue Assay (MABA), antitubercular activity
Type: cell-based
Details: M. tuberculosis H37Rv, MABA, lowest concentration giving ≥90% reduction in fluorescence

| Compound | MIC |
| --- | --- |
| NNC(=O)c1ccc(Oc2ccccc2)cc1 [Compound 3, 4-Phenoxybenzohydrazide] | 0.86 µg/mL (≈ 3.77 µM) |
| c1ccc(Oc2ccc(-c3nnco3)cc2)cc1 [Compound 4, 2-(4-Phenoxyphenyl)-1,3,4-oxadiazole] | 0.61 µg/mL (≈ 2.56 µM) |
| c1ccc(Oc2ccc(-c3nnc(-c4ccc(Oc5ccccc5)cc4)o3)cc2)cc1 [Compound 6l, 2,5-bis(4-Phenoxyphenyl)-1,3,4-oxadiazole] | 1.17 µg/mL (≈ 2.88 µM) |
| NNC(=O)c1ccncc1 [INH, isoniazid, reference compound] | 0.20 µg/mL (≈ 1.46 µM) |
| Oc1cc(Cl)ccc1Oc1ccc(Cl)cc1Cl [Triclosan, triclosan, reference compound] | 10.00 µg/mL (≈ 34.5 µM) |

Same assay, conditions: Mycobacterium tuberculosis, H37RV

| Compound | MIC |
| --- | --- |
| Oc1cc(Cl)ccc1Oc1ccc(Cl)cc1Cl [Triclosan, triclosan, reference compound] | 10 µg/mL (≈ 34.5 µM) |

Same assay, conditions: Mycobacterium tuberculosis, H37RV, M. tuberculosis H37Rv, MABA, lowest concentration giving ≥90% reduction in fluorescence; read-out: MIC

| Compound | MIC |
| --- | --- |
| NNC(=O)c1ccc(Oc2ccccc2)cc1 [Compound 3, 4-Phenoxybenzohydrazide] | 0.61 to 1.69 µg/mL (≈ 2.67 to 7.4 µM) |
| c1ccc(Oc2ccc(-c3nnco3)cc2)cc1 [Compound 4, 2-(4-Phenoxyphenyl)-1,3,4-oxadiazole] | 0.61 to 1.69 µg/mL (≈ 2.56 to 7.09 µM) |
| c1ccc(Oc2ccc(-c3nnc(-c4ccccc4)o3)cc2)cc1 [Compound 6a, 2-(4-Phenoxyphenyl)-5-phenyl-1,3,4-oxadiazole] | 2.74 µg/mL (≈ 8.72 µM) |
| COc1cc(-c2nnc(-c3ccc(Oc4ccccc4)cc3)o2)cc(OC)c1OC [Compound 6b, 2-(4-Phenoxyphenyl)-5-(3,4,5-trimethoxyphenyl)-1,3,4-oxadiazole] | 34.6 µg/mL (≈ 85.7 µM) |
| COc1ccc(-c2nnc(-c3ccc(Oc4ccccc4)cc3)o2)cc1 [Compound 6c, 2-(4-Methoxyphenyl)-5-(4-phenoxyphenyl)-1,3,4-oxadiazole] | 39 µg/mL (≈ 113 µM) |
| O=[N+]([O-])c1ccc(-c2nnc(-c3ccc(Oc4ccccc4)cc3)o2)cc1 [Compound 6d, 2-(4-Nitrophenyl)-5-(4-phenoxyphenyl)-1,3,4-oxadiazole] | 15.2 µg/mL (≈ 42.2 µM) |
| Clc1ccc(-c2nnc(-c3ccc(Oc4ccccc4)cc3)o2)cc1 [Compound 6e, 2-(4-Chlorophenyl)-5-(4-phenoxyphenyl)-1,3,4-oxadiazole] | 15.9 µg/mL (≈ 45.6 µM) |
| c1ccc(COc2ccc(-c3nnc(-c4ccc(Oc5ccccc5)cc4)o3)cc2)cc1 [Compound 6f, 2-(4-(Benzyloxy)phenyl)-5-(4-phenoxyphenyl)-1,3,4-oxadiazole] | 8.23 µg/mL (≈ 19.6 µM) |
| c1ccc(Oc2ccc(-c3nnc(-c4cccc5ccccc45)o3)cc2)cc1 [Compound 6g, 2-(Naphthalen-1-yl)-5-(4-phenoxyphenyl)-1,3,4-oxadiazole] | 12.2 µg/mL (≈ 33.6 µM) |
| c1ccc(Oc2ccc(-c3nnc(-c4ccco4)o3)cc2)cc1 [Compound 6j, 2-(Furan-2-yl)-5-(4-phenoxyphenyl)-1,3,4-oxadiazole] | 11.1 µg/mL (≈ 36.5 µM) |
| c1ccc(Oc2ccc(-c3nnc(-c4ccc(Oc5ccccc5)cc4)o3)cc2)cc1 [Compound 6l, 2,5-bis(4-Phenoxyphenyl)-1,3,4-oxadiazole] | 0.61 to 1.69 µg/mL (≈ 1.5 to 4.16 µM) |
| O=C(N/N=C/c1ccccc1)c1ccc(Oc2ccccc2)cc1 [Compound 8a, (E)-N′-Benzylidene-4-phenoxybenzohydrazide] | 34.5 µg/mL (≈ 109 µM) |
| COc1cc(/C=N/NC(=O)c2ccc(Oc3ccccc3)cc2)cc(OC)c1OC [Compound 8b, (E)-4-Phenoxy-N′-(3,4,5-trimethoxybenzylidene)benzohydrazide] | 50.2 µg/mL (≈ 124 µM) |
| COc1ccc(/C=N/NC(=O)c2ccc(Oc3ccccc3)cc2)cc1 [Compound 8c, (E)-N′-(4-Methoxybenzylidene)-4-phenoxybenzohydrazide] | 20.7 µg/mL (≈ 59.7 µM) |
| O=C(N/N=C/c1ccc(Cl)cc1)c1ccc(Oc2ccccc2)cc1 [Compound 8e, (E)-N′-(4-Chlorobenzylidene)-4-phenoxybenzohydrazide] | 2.89 µg/mL (≈ 8.24 µM) |
| O=C(N/N=C/c1ccc(OCc2ccccc2)cc1)c1ccc(Oc2ccccc2)cc1 [Compound 8f, (E)-N′-[4-(Benzyloxy)benzylidene]-4-phenoxybenzohydrazide] | 22.6 µg/mL (≈ 53.5 µM) |
| O=C(N/N=C/c1cccnc1)c1ccc(Oc2ccccc2)cc1 [Compound 8h, (E)-4-Phenoxy-N′-(pyridin-3-ylmethylene)benzohydrazide] | 6.96 µg/mL (≈ 21.9 µM) |
| O=C(N/N=C/c1ccncc1)c1ccc(Oc2ccccc2)cc1 [Compound 8i, (E)-4-Phenoxy-N′-(pyridin-4-ylmethylene)benzohydrazide] | 6.82 µg/mL (≈ 21.5 µM) |
| O=C(N/N=C/c1ccco1)c1ccc(Oc2ccccc2)cc1 [Compound 8j, (E)-N′-(Furan-2-ylmethylene)-4-phenoxybenzohydrazide] | 6.35 µg/mL (≈ 20.7 µM) |
| NNC(=O)c1ccncc1 [INH, isoniazid, reference compound] | 0.2 µg/mL (≈ 1.46 µM) |

From article PMC7397076 (Molecules, 2020)
